pEC50: −log10 of the molar value.
System: ATDC5 cells
Test: Chondrogenesis activity assay in ATDC5 cells (collagen type II induction, immunofluorescence)
Assay type: cell-based, mouse
Conditions: Mus musculus; for pEC50: collagen type II induction in ATDC5 cells, concentration reaching 50% of maximum induction; for Emax: maximum percent induction of collagen type II relative to internal reference compound at 10 μM, ATDC5 cells
Outline: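 Collagen type II was stained in fixed, permeabilized cells with an Alexa Fluor 488 secondary and measured by high-content fluorescence imaging. ATDC5 cells had 4 days at 37 °C in insulin-supplemented differentiation medium with compound, typically 40 nM–10 μM, 0.1% DMSO. DMSO wells and a 10 μM internal reference compound were used for normalization.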

pEC50 | SMILES | Emax [%]
< 5.00 | CCn1c2c(-c3cccc(C(N)=O)c3)cc(Cl)cc2c2ccnc(C)c21 [Example 220, 3-(6-Chloro-9-ethyl-1-methyl-9H-pyrido[3,4-b]indol-8-yl)-benzamide] | 20 to 50
< 5.48 | COc1cc(-c2cc(Cl)cc3c2[nH]c2c(C)nccc23)ccc1OCc1ccccn1 [Example 221, 6-Chloro-8-[3-methoxy-4-(pyridin-2-ylmethoxy)-phenyl]-1-methyl-9H-pyrido[3,4-b]indole] | 20 to 50
< 5.00 | COc1cc(-c2cc(Cl)cc3c2[nH]c2c(C)nccc23)ccc1OCc1ccccc1 [Example 222, 8-(4-Benzyloxy-3-methoxy-phenyl)-6-chloro-1-methyl-9H-pyrido[3,4-b]indole] | < 20
6.51 | Cc1nccc2c1[nH]c1c(-c3ccc(CN4CCOCC4)cc3)cc(Cl)cc12 [Example 224, 6-Chloro-1-methyl-8-(4-morpholin-4-ylmethyl-phenyl)-9H-pyrido[3,4-b]indole] | > 80
5.77 | Cc1nccc2c1[nH]c1c(-c3ccc(OC4CCCC4)cc3)cc(Cl)cc12 [Example 225, 6-Chloro-8-(4-cyclopentyloxy-phenyl)-1-methyl-9H-pyrido[3,4-b]indole] | > 80
6.72 | Cc1nccc2c1[nH]c1c(-c3ccc(OCc4cccc(F)n4)cc3)cc(Cl)cc12 [Example 226, 6-Chloro-8-[4-(6-fluoro-pyridin-2-ylmethoxy)-phenyl]-1-methyl-9H-pyrido[3,4-b]indole] | 50 to 80
6.48 | Cc1nccc2c1[nH]c1c(-c3ccnn3C)cc(Cl)cc12 [Example 227, 6-Chloro-1-methyl-8-(2-methyl-2H-pyrazol-3-yl)-9H-pyrido[3,4-b]indole] | > 80
6.55 | Cc1nccc2c1[nH]c1c(-c3ccc(OCC(O)CN4CCCCC4)cc3)cc(Cl)cc12 (stereo not shown) [Example 229, 1-[4-(6-Chloro-1-methyl-9H-pyrido[3,4-b]indol-8-yl)-phenoxy]-3-piperidin-1-yl-propan-2-ol] | 50 to 80
< 5.00 | Cc1nccc2c1[nH]c1c(-c3ccc(OCCc4ccccc4)cc3)cc(Cl)cc12 [Example 231, 6-Chloro-1-methyl-8-(4-phenethyloxy-phenyl)-9H-pyrido[3,4-b]indole] | 20 to 50
6.48 | Cc1nccc2c1[nH]c1c(-c3ccc4[nH]ncc4c3)cc(Cl)cc12 [Example 232, 6-Chloro-8-(1H-indazol-5-yl)-1-methyl-9H-pyrido[3,4-b]indole] | > 80
< 5.00 | CCn1c2c(-c3ccn(CCn4cccn4)n3)cc(Cl)cc2c2ccnc(C)c21 [Example 233, 6-Chloro-9-ethyl-1-methyl-8-[1-(2-pyrazol-1-yl-ethyl)-1H-pyrazol-3-yl]-9H-pyrido[3,4-b]indole] | 20 to 50
5.24 | CCn1c2c(-c3cc[nH]n3)cc(Cl)cc2c2ccnc(C)c21 [Example 234, 6-Chloro-9-ethyl-1-methyl-8-(1H-pyrazol-3-yl)-9H-pyrido[3,4-b]indole] | 50 to 80
6.30 | Cc1nccc2c1[nH]c1c(-c3cnc(-n4cccn4)nc3)cc(Cl)cc12 [Example 237, 6-Chloro-1-methyl-8-(2-pyrazol-1-yl-pyrimidin-5-yl)-9H-pyrido[3,4-b]indole] | > 80
5.85 | CCn1c2c(-c3ccc(C(O)c4ccccc4)cc3)cc(Cl)cc2c2ccnc(C)c21 (stereo not shown) [Example 238, [4-(6-Chloro-9-ethyl-1-methyl-9H-pyrido[3,4-b]indol-8-yl)-phenyl]-phenyl-methanol] | > 80
6.60 | CCn1c2c(-c3cn[nH]c3)cc(Cl)cc2c2ccnc(C)c21 [Example 239, 6-Chloro-9-ethyl-1-methyl-8-(1H-pyrazol-4-yl)-9H-pyrido[3,4-b]indole] | 50 to 80
6.31 | COc1ccc(-c2cc(Cl)cc3c4ccnc(C)c4n(C)c23)nc1N [Example 240, 6-(6-Chloro-1,9-dimethyl-9H-pyrido[3,4-b]indol-8-yl)-3-methoxy-pyridin-2-ylamine] | 50 to 80
6.24 | Cc1nccc2c1[nH]c1c(-c3cnn(Cc4ccccn4)c3)cc(Cl)cc12 [Example 242, 6-Chloro-1-methyl-8-(1-pyridin-2-ylmethyl-1H-pyrazol-4-yl)-9H-pyrido[3,4-b]indole] | > 80
6.18 | Cc1nccc2c1[nH]c1c(-c3ccc([S+](C)[O-])cc3)cc(Cl)cc12 (stereo not shown) [Example 243, 6-Chloro-8-(4-methanesulfinyl-phenyl)-1-methyl-9H-pyrido[3,4-b]indole] | > 80
5.54 | CCn1c2c(-c3ccc(Oc4ccccc4)cc3)cc(Cl)cc2c2ccnc(C)c21 [Example 246, 6-Chloro-9-ethyl-1-methyl-8-(4-phenoxy-phenyl)-9H-pyrido[3,4-b]indole] | 50 to 80

pEC50 | SMILES | Emax [%]
< 5.48 | Cc1nccc2c1[nH]c1c(-c3cccc(CCO)c3)cc(Cl)cc12 [Example 248, 2-[3-(6-Chloro-1-methyl-9H-pyrido[3,4-b]indol-8-yl)-phenyl]-ethanol] | 20 to 50
< 5.48 | Cc1nccc2c1[nH]c1c(-c3cccc(OCCN4CCOCC4)c3)cc(Cl)cc12 [Example 249, 6-Chloro-1-methyl-8-[3-(2-morpholin-4-yl-ethoxy)-phenyl]-9H-pyrido[3,4-b]indole] | 20 to 50
5.80 | Cc1nccc2c1[nH]c1c(-c3ccc(C(F)(F)F)cc3)cc(Cl)cc12 [Example 252, 6-Chloro-1-methyl-8-(4-trifluoromethyl-phenyl)-9H-pyrido[3,4-b]indole] | > 80
< 5.00 | CCn1c2c(-c3cccc(N4CCOCC4)c3)cc(Cl)cc2c2ccnc(C)c21 [Example 253, 6-Chloro-9-ethyl-1-methyl-8-(3-morpholin-4-yl-phenyl)-9H-pyrido[3,4-b]indole] | 20 to 50
< 5.48 | CCn1c2c(-c3cccc(CN4CCOCC4)c3)cc(Cl)cc2c2ccnc(C)c21 [Example 254, 6-Chloro-9-ethyl-1-methyl-8-(3-morpholin-4-ylmethyl-phenyl)-9H-pyrido[3,4-b]indole] | < 20
< 5.48 | Cc1nccc2c1[nH]c1c(-c3cccc(CN4CCOCC4)c3)cc(Cl)cc12 [Example 255, 6-Chloro-1-methyl-8-(3-morpholin-4-ylmethyl-phenyl)-9H-pyrido[3,4-b]indole] | < 20
6.51 | CCn1c2c(-c3ccc(OCC4(C)COC4)cc3)cc(Br)cc2c2ccnc(C)c21 [Example 257, 6-Bromo-9-ethyl-1-methyl-8-[4-(3-methyl-oxetan-3-ylmethoxy)-phenyl]-9H-pyrido[3,4-b]indole] | > 80
6.37 | Cc1nccc2c1[nH]c1c(-c3ccc(OCCn4cccn4)cc3)cc(Br)cc12 [Example 259, 6-Bromo-1-methyl-8-[4-(2-pyrazol-1-yl-ethoxy)-phenyl]-9H-pyrido[3,4-b]indole] | > 80
< 5.96 | Cc1nccc2c1[nH]c1c(-c3cccc(OCc4ccc5ccccc5n4)c3)cc(Cl)cc12 [Example 260, 6-Chloro-1-methyl-8-[3-(quinolin-2-ylmethoxy)-phenyl]-9H-pyrido[3,4-b]indole] | < 20
5.82 | CCn1c2c(-c3cnn(Cc4ccccn4)c3)cc(Br)cc2c2ccnc(C)c21 [Example 261, 6-Bromo-9-ethyl-1-methyl-8-(1-pyridin-2-ylmethyl-1H-pyrazol-4-yl)-9H-pyrido[3,4-b]indole] | > 80
5.64 | Cc1nccc2c1[nH]c1c(-c3ccc(OC(F)(F)F)cc3)cc(Cl)cc12 [Example 262] | > 80
6.26 | CCn1c2c(-c3cnn(CCOC(C)=O)c3)cc(Cl)cc2c2ccnc(C)c21 [Example 263, Acetic acid 2-[4-(6-chloro-9-ethyl-1-methyl-9H-pyrido[3,4-b]indol-8-yl)-pyrazol-1-yl]-ethyl ester] | > 80
6.96 | Cc1nccc2c1[nH]c1c(-c3ccc(OCc4ncccn4)cc3)cc(Cl)cc12 [Example 266, 6-Chloro-1-methyl-8-[4-(pyrimidin-2-ylmethoxy)-phenyl]-9H-pyrido[3,4-b]indole] | > 80
< 5.48 | Cc1nccc2c1[nH]c1c(-c3cccc(OCc4ncccn4)c3)cc(Cl)cc12 [Example 267, 6-Chloro-1-methyl-8-[3-(pyrimidin-2-ylmethoxy)-phenyl]-9H-pyrido[3,4-b]indole] | 50 to 80
6.47 | Cc1nccc2c1[nH]c1c(-c3ccc(Oc4ncc(Br)cn4)cc3)cc(Cl)cc12 [Example 268, 8-[4-(5-Bromo-pyrimidin-2-yloxy)-phenyl]-6-chloro-1-methyl-9H-pyrido[3,4-b]indole] | > 80
< 5.48 | Cc1nccc2c1[nH]c1c(-c3cccc(OCc4nccc5ccccc45)c3)cc(Cl)cc12 [Example 269, 6-Chloro-8-[3-(isoquinolin-1-ylmethoxy)-phenyl]-1-methyl-9H-pyrido[3,4-b]indole] | 20 to 50
5.72 | COc1cc(OC)nc(COc2cccc(-c3cc(Cl)cc4c3[nH]c3c(C)nccc34)c2)n1 [Example 272, 6-Chloro-8-[3-(4,6-dimethoxy-pyrimidin-2-ylmethoxy)-phenyl]-1-methyl-9H-pyrido[3,4-b]indole] | > 80
6.77 | Cc1nccc2c1[nH]c1c(-c3cccc(OCc4nccs4)c3)cc(Cl)cc12 [Example 273, 6-Chloro-1-methyl-8-[3-(thiazol-2-ylmethoxy)-phenyl]-9H-pyrido[3,4-b]indole] | < 20
< 5.48 | Cc1nccc2c1[nH]c1c(-c3cccc(OCc4ncc5ccccc5n4)c3)cc(Cl)cc12 [Example 274, 6-Chloro-1-methyl-8-[3-(quinazolin-2-ylmethoxy)-phenyl]-9H-pyrido[3,4-b]indole] | < 20
